Data from patent US10144715B2, “Piperazine derivatives as liver X receptor modulators” (priority 2014, dated 2018).
Like-named read-outs stand apart in the source and are kept apart here.

What was measured:
[1] = biological target: Gal4 DNA binding domain fused to the LBD of LXRβ in HEK293 cells (Homo sapiens (Human), UniProt P55055); assay: cell-based
[2] = biological target: LXR α LBD protein (Homo sapiens (Human), UniProt Q13133); assay: LXR α radioligand binding assay (SPA, competition with [3H]TO901317); conditions: read-out: LXRα Binding Ki
Chain of LXR α LBD protein (Q13133 209-447): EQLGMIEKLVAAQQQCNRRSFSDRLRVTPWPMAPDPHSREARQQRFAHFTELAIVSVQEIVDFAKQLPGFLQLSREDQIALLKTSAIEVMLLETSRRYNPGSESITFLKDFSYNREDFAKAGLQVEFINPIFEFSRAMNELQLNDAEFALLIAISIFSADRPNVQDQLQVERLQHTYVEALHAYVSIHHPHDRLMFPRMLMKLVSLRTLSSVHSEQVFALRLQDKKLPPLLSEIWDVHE

[3] = biological target: LXR β LBD protein (Homo sapiens (Human), UniProt P55055); assay: biochemical; type: binding
Chain of LXR β LBD protein (P55055 222-460 limits assumed): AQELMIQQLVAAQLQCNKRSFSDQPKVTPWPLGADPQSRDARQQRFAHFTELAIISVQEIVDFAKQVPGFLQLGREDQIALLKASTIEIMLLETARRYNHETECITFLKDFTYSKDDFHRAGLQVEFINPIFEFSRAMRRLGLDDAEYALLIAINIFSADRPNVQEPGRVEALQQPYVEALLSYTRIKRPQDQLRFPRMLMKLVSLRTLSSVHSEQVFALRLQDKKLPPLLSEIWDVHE

[4] = biological target: Gal4 DNA binding domain fused to the LBD of LXRα in HEK293 cells (Homo sapiens (Human), UniProt Q13133); assay: LXR luciferase transcriptional reporter gene assay, agonist mode, LXRα; type: cell-based; conditions: for EC50: read-out: Cell LXRα EC50
Chain of Gal4 DNA binding domain fused to the LBD of LXRα in HEK293 cells (Q13133 209-447): as the sequence (Q13133 209-447) above

[5] = Biological Test Example 2, agonist mode
[6] = Biological Test Example 1, read-out: LXRβ Binding Ki
[7] = Biological Test Example 2, agonist mode, read-out: Cell LXRβ EC50

Chain of Gal4 DNA binding domain fused to the LBD of LXRβ in HEK293 cells (P55055 222-460 limits assumed): as the sequence (P55055 222-460 limits assumed) above

| EC50 [1] | Ki ([3]; read-out: LXRβ Binding Ki) | EC50 [4] | Structure (SMILES) | Cell LXRβ efficacy ([1]; agonist mode) | Cell LXRα efficacy [4] | EC50 ([4]; agonist mode) | other results |
| --- | --- | --- | --- | --- | --- | --- | --- |
| > 20000 nM | 226 nM |  | CC(C)(O)c1cc(CN2CCN(c3cccc(S(C)(=O)=O)c3)C[C@@H]2c2ccccc2)ccc1C(F)(F)F [10-13, (S)-2-(5-((4-(3-(methylsulfonyl)phenyl)-2-phenylpiperazin-1-yl)methyl)-2-(trifluoromethyl)phenyl)propan-2-ol] |  |  | > 20000 nM |  |
| 33 nM |  | 290 nM | CNS(=O)(=O)c1cc(N2CCN(c3ncc(C(C)=O)c(C(F)(F)F)n3)[C@H](C(C)C)C2)ccc1F [13-2, (R)-5-(4-(5-acetyl-4-(trifluoromethyl)pyrimidin-2-yl)-3-isopropylpiperazin-1-yl)-2-fluoro-N-methylbenzenesulfonamide] | 33 (58) % | 290 (73) % |  | Ki [3]: 3 nM |
| 360 nM | 88 nM | 2460 nM | CC(=O)c1cnc(N2CCN(c3ccc(F)c(S(C)(=O)=O)c3)C[C@H]2c2ccc(F)cc2)nc1C(F)(F)F [13-3, (R)-1-(2-(4-(4-fluoro-3-(methylsulfonyl)phenyl)-2-(4-fluorophenyl)piperazin-1-yl)-4-(trifluoromethyl)pyrimidin-5-yl)ethan-1-one] | 360 (18) % | 2458 (21) % |  |  |
| 833 nM | 512 nM |  | CC(C)[C@@H]1CN(c2ccc(F)c(S(C)(=O)=O)c2)CCN1c1ncc(C(=O)N2CC(N)C2)c(C(F)(F)F)n1 [17-4, (R)-(3-aminoazetidin-1-yl)(2-(4-(4-fluoro-3-(methylsulfonyl)phenyl)-2-isopropylpiperazin-1-yl)-4-(trifluoromethyl)pyrimidin-5-yl)methanone] | 833 (6) % |  | > 20000 nM |  |
| > 20000 nM | 396 nM |  | CC(C)[C@@H]1CN(c2ccc(F)c(S(C)(=O)=O)c2)CCN1c1ncc(C(=O)N2CC(O)C2)c(C(F)(F)F)n1 [17-5, (R)-(2-(4-(4-fluoro-3-(methylsulfonyl)phenyl)-2-isopropylpiperazin-1-yl)-4-(trifluoromethyl)pyrimidin-5-yl)(3-hydroxyazetidin-1-yl)methanone] |  |  | > 20000 nM |  |
| > 20000 nM | 330 nM |  | CC(C)[C@@H]1CN(c2ccc(F)c(S(C)(=O)=O)c2)CCN1c1ncc(C(=O)NC2CN(C(=O)OC(C)(C)C)C2)c(C(F)(F)F)n1 [17-20, tert-butyl (R)-3-(2-(4-(4-fluoro-3-(methylsulfonyl)phenyl)-2-isopropylpiperazin-1-yl)-4-(trifluoromethyl)pyrimidine-5-carboxamido)azetidine-1-carboxylate] |  |  | > 20000 nM |  |
| > 20000 nM | 111 nM |  | CC(C)[C@@H]1CN(c2ccc(F)c(S(C)(=O)=O)c2)CCN1c1ncc(C(=O)N2CC(NC(=O)OC(C)(C)C)C2)c(C(F)(F)F)n1 [17-21, tert-butyl (R)-(1-(2-(4-(4-fluoro-3-(methylsulfonyl)phenyl)-2-isopropylpiperazin-1-yl)-4-(trifluoromethyl)pyrimidine-5-carbonyl)azetidin-3-yl)carbamate] |  |  | > 20000 nM |  |
| > 20000 nM |  |  | CON(C)C(=O)c1cnc(N2CCN(c3ccc(F)c(S(C)(=O)=O)c3)C[C@H]2c2ccc(F)cc2)nc1C(F)(F)F [17-32, (R)-2-(4-(4-fluoro-3-(methylsulfonyl)phenyl)-2-(4-fluorophenyl)piperazin-1-yl)-N-methoxy-N-methyl-4-(trifluoromethyl)pyrimidine-5-carboxamide] |  |  | > 20000 nM | Ki [3]: 435 nM |
| > 20000 nM |  | > 20000 nM | C[C@@H](c1ccc(C(F)(F)F)cc1)N1CCN(c2cccc(S(C)(=O)=O)c2)C[C@@H]1c1ccccc1 [46-16, (S)-4-(3-(methylsulfonyl)phenyl)-2-phenyl-1-((S)-1-(4-(trifluoromethyl)phenyl)ethyl)piperazine] |  |  |  | Ki [3]: 503 nM |
| 4010 nM | 1670 nM | > 20000 nM | CS(=O)(=O)c1cccc(N2CCN(CC3CCN(CC(F)(F)F)CC3)[C@H](c3ccccc3Cl)C2)c1 [48-56, (R)-2-(2-chlorophenyl)-4-(3-(methylsulfonyl)phenyl)-1-((1-(2,2,2-trifluoroethyl)piperidin-4-yl)methyl)piperazine] |  |  |  | Cell LXRβ efficacy [1]: 4014 (16) % |
| 41 nM | 3 nM | 262 nM | Cc1nc(N2CCN(c3ccc(F)c(S(C)(=O)=O)c3)C[C@H]2C(C)C)ncc1C(F)(F)F [Cpd No 37-1, (R)-2-(4-(4-fluoro-3-(methylsulfonyl)phenyl)-2-isopropylpiperazin-1-yl)-4-methyl-5-(trifluoromethyl)pyrimidine] |  | 262 (91) % |  | Cell LXRβ efficacy [1]: 41 (81) % |

| Structure (SMILES) | EC50 [1] | Ki ([3]; read-out: LXRβ Binding Ki) | EC50 [4] | Cell LXRβ efficacy ([1]; agonist mode) | Cell LXRα efficacy [4] | EC50 ([4]; agonist mode) | other results |
| --- | --- | --- | --- | --- | --- | --- | --- |
| CO[C@@H](C)[C@@H]1CN(c2ccc(CO)c(S(C)(=O)=O)c2)CCN1c1ncc(CO)c(C(F)(F)F)n1 (single isomer, unassigned) [11-4] | 347 nM |  |  | 347 (24) % | 3106 (30) % | 3110 nM | Ki [2]: 1890 nM; Ki [3]: 159 nM |
| CO[C@H](C)[C@@H]1CN(c2ccc(CO)c(S(C)(=O)=O)c2)CCN1c1ncc(CO)c(C(F)(F)F)n1 (single isomer, unassigned) [11-5] | 363 nM |  |  | 363 (16) % | 4667 (21) % | 4670 nM | Ki [2]: > 3330 nM; Ki [3]: 414 nM |
| COC(=O)c1cnc(N2CCN(c3ccc(F)c(S(C)(=O)=O)c3)C[C@H]2c2ccc(F)cc2)nc1C(F)(F)F [9-9, methyl (R)-2-(4-(4-fluoro-3-(methylsulfonyl)phenyl)-2-(4-fluorophenyl)piperazin-1-yl)-4-(trifluoromethyl)pyrimidine-5-carboxylate] | 780 nM | 298 nM |  | 780 (13) % | 3041 (6) % | 3040 nM |  |
| Cc1nc(N2CCN(c3ccc(F)c(S(C)(=O)=O)c3)CC2CC(F)(F)F)ncc1C(C)(C)O (centres unmarked) [10-6, 2-(2-(4-(4-fluoro-3-(methylsulfonyl)phenyl)-2-(2,2,2-trifluoroethyl)piperazin-1-yl)-4-methylpyrimidin-5-yl)propan-2-ol] | 1310 nM | 862 nM |  |  | 9158 (22) % | 9160 nM |  |
| C=C(C)c1cnc(N2CCN(c3ccc(CO)c(S(C)(=O)=O)c3)C[C@H]2C(C)C)nc1C(F)(F)F [14-2, (R)-(4-(3-isopropyl-4-(5-(prop-1-en-2-yl)-4-(trifluoromethyl)pyrimidin-2-yl)piperazin-1-yl)-2-(methylsulfonyl)phenyl)methanol] | 28 nM | 1 nM |  | 28 (42) % | 186 (63) % | 186 nM |  |
| CSCc1cnc(N2CCN(c3ccc(F)c(S(C)(=O)=O)c3)C[C@H]2C(C)C)nc1C(F)(F)F [15-8, (R)-2-(4-(4-fluoro-3-(methylsulfonyl)phenyl)-2-isopropylpiperazin-1-yl)-5-((methylthio)methyl)-4-(trifluoromethyl)pyrimidine] | 34 nM | 1 nM |  | 34 (35) % | 219 (44) % | 219 nM |  |
| COC(=O)c1cc(CN2CCN(c3cccc(S(C)(=O)=O)c3)CC2c2ccccc2)ccc1C(F)(F)F (centres unmarked) [46-36, methyl 5-((4-(3-(methylsulfonyl)phenyl)-2-phenylpiperazin-1-yl)methyl)-2-(trifluoromethyl)benzoate] | 4760 nM | 244 nM |  | 4759 (14) % | 11251 (20) % | 11300 nM |  |
| CS(=O)(=O)c1cccc(N2CCN(Cc3ccc(C(F)(F)F)c(Br)c3)C(c3ccccc3)C2)c1 (centres unmarked) [46-37, 1-(3-bromo-4-(trifluoromethyl)benzyl)-4-(3-(methylsulfonyl)phenyl)-2-phenylpiperazine] | 1190 nM | 30 nM |  | 1194 (55) % | 3451 (52) % | 3450 nM |  |
| CS(=O)(=O)c1cccc(N2CCN(CC3(F)CCN(CC(F)(F)F)CC3)[C@@H](c3ccc(F)cc3)C2)c1 [48-57, (S)-1-((4-fluoro-1-(2,2,2-trifluoroethyl)piperidin-4-yl)methyl)-2-(4-fluorophenyl)-4-(3-(methylsulfonyl)phenyl)piperazine] | 1270 nM |  |  |  | 4500 (37) % |  | Cell LXRβ efficacy [1, 5]: 1272 (13) %; Ki [3, 6]: 492 nM; EC50 [4, 5]: 4500 nM |
| CS(=O)(=O)c1cccc(N2CCN(C[C@H]3CC[C@]4(CC3)CC4(F)F)[C@H](c3ccccc3)C2)c1 [48-72, (R)-1-(((3R,6r)-1,1-difluorospiro[2.5]octan-6-yl)methyl)-4-(3-(methylsulfonyl)phenyl)-2-phenylpiperazine] |  |  | 7220 nM |  | 7222 (11) % |  | Cell LXRβ efficacy [1, 5]: 31%; EC50 [1, 7]: 2880 nM; Ki [3, 6]: 825 nM |
| CS(=O)(=O)c1cccc(N2CCN(C[C@@H]3C[C@H]4CC[C@@H](C3)N4CC(F)(F)F)[C@H](c3ccccc3)C2)c1 [48-75, (1R,3s,5S)-3-(((R)-4-(3-(methylsulfonyl)phenyl)-2-phenylpiperazin-1-yl)methyl)-8-(2,2,2-trifluoroethyl)-8-azabicyclo[3.2.1]octane] |  |  | > 20000 nM |  |  |  | Cell LXRβ efficacy [1, 5]: 21%; EC50 [1, 7]: 2400 nM; Ki [3, 6]: 940 nM |
| CS(=O)(=O)c1cccc(N2CCN(C[C@@H]3C[C@H]4CC[C@@H](C3)N4CC(F)(F)F)[C@@H](c3ccccc3)C2)c1 [48-76, (1R,3s,5S)-3-(((S)-4-(3-(methylsulfonyl)phenyl)-2-phenylpiperazin-1-yl)methyl)-8-(2,2,2-trifluoroethyl)-8-azabicyclo[3.2.1]octane] |  |  | 1390 nM |  | 1394 (54) % |  | Cell LXRβ efficacy [1, 5]: 27%; EC50 [1, 7]: 374 nM; Ki [3, 6]: 67 nM |
